Assay results published in ChEMBL document CHEMBL4007462, “Chemical and bioactivity of flavanones obtained from roots of Dalea pazensis Rusby” (Bioorg Med Chem Lett, 2017).
Active and inactive are the calls of the source. No cut-off for these calls is given here.

Assays:
B16 = experiment: Inhibition of melanin formation from L-DOPA in mouse B16 cells preincubated for 24 hrs followed by L-DOPA addition and subsequent incubation for 20 mins measured at 1 min interval for 10 mins by MBTH reagent based spectrophotometric method; assay type: functional, cell-based
Mushroom tyrosinase = Mushroom tyrosinase (Agaricus bisporus, UniProt O42713+Q00024+C7FF04+C7FF05); experiment: Inhibition of mushroom tyrosinase using L-tyrosine as substrate preincubated for 10 mins followed by substrate addition measured after 20 mins by spectrophotometric method
Tyrosinase = molecular target: T1, Tyrosinase (Mus musculus, UniProt P11344)
T1 sequence (P11344 whole entry): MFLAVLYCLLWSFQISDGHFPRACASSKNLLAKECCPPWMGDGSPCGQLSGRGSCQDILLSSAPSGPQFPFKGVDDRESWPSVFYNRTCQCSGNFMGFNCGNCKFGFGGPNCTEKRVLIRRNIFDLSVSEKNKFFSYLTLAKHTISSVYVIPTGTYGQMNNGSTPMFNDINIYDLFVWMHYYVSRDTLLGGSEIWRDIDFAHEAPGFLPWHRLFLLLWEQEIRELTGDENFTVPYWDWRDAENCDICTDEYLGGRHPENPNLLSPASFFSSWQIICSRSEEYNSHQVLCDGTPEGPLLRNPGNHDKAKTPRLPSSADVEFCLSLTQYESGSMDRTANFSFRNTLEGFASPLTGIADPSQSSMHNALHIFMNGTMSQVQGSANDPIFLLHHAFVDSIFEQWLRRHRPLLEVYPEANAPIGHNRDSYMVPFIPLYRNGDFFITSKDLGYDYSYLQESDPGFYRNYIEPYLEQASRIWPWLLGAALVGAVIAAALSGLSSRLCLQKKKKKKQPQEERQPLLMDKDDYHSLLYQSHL
Description: Inhibition of tyrosinase in mouse B16 cells assessed as reduction in melanin production measured after 24 hrs

[1] = molecular target: T2, Mushroom tyrosinase (Agaricus bisporus) (UniProt O42713+Q00024+C7FF04+C7FF05); experiment: Inhibition of mushroom tyrosinase at 10 uM using L-tyrosine as substrate preincubated for 10 mins followed by substrate addition measured after 20 mins by spectrophotometric method relative to control
[2] = molecular target: T2, Mushroom tyrosinase (Agaricus bisporus); experiment: Inhibition of mushroom tyrosinase at 100 uM using L-tyrosine as substrate preincubated for 10 mins followed by substrate addition measured after 20 mins by spectrophotometric method relative to control
in vitro = conditions: mouse, B16 cells
Description: Cytotoxicity against mouse B16 cells after 24 hrs by MTT assay

[3] = molecular target: T3, Tyrosinase (Mus musculus) (UniProt P11344); experiment: Inhibition of intracellular tyrosinase activity in mouse B16 cells at 0.05 uM using L-DOPA as substrate preincubated for 24 hrs followed by substrate addition and subsequent incubation for 20 mins measured at 1 min interval for 10 mins by MBTH reagent based spectrophotometric method relative to control; assay type: cell-based
T3 sequence (whole entry): T1 sequence (P11344 whole entry)

[4] = molecular target: T3, Tyrosinase (Mus musculus); experiment: Inhibition of intracellular tyrosinase activity in mouse B16 cells at 5 uM using L-DOPA as substrate preincubated for 24 hrs followed by substrate addition and subsequent incubation for 20 mins measured at 1 min interval for 10 mins by MBTH reagent based spectrophotometric method relative to control; assay type: cell-based

| IC50 (Mushroom tyrosinase) | IC50 (Tyrosinase) | inhibition [1] | inhibition [2] | MNTC at 24 h (in vitro) | inhibition [3] | inhibition [4] | SMILES | inhibition (B16) |
| --- | --- | --- | --- | --- | --- | --- | --- | --- |
| 49.8 µM | 5 µM | 21.5% | 63.8% | 5 µM | – | – | C=CC(C)(C)c1cc(C2CC(=O)c3c(O)cc(O)c(CC=C(C)C)c3O2)c(OC)cc1O (stereo not drawn) | Active |
| – | 5 µM | 0% | 0% | 50 µM | – | – | C=CC(C)(C)c1cc(C2CC(=O)c3c(cc(O)c(CC=C(C)C)c3O)O2)c(OC)cc1O (stereo not drawn) | Active |
| – | 0.75 µM | 2.84% | 9.4% | 1 µM | – | – | CC(C)=CCc1c(O)cc2c(c1O)C(=O)CC(c1ccc(O)c(O)c1CC=C(C)C)O2 (stereo not drawn) | Active |
| 2.32 µM | 1 µM | 90.5% | 95% | 10 µM | 20.6% | 31.8% | C=CC(C)(C)c1cc(C2CC(=O)c3c(O)cc(O)c(CC=C(C)C)c3O2)c(O)cc1O (stereo not drawn) | – |
